Results on one substance are retold here after patent US20080311158A1, “Hepatitis C Virus Replication System” (priority 2004, published 2008).

In test [1] the test system is HCV RNA in 21-5/R809 cells. The test can be described thus: HCV RNA levels after IFN-α treatment of 21-5/R809 cell culture. Format: cell-based, hepatitis C virus. The settings on record: 21-5/R809 cells incubated with IFN-α. An excerpt: FIGS. 17 and 18 show levels of HCV RNA or ribosomal RNA after IFN-α treatment of cell culture.
Test [2] deals with E1 and E2 distribution in 21-5/R809 cells. Nature of the test: Intracellular immunofluorescence of E1/E2 in 21-5/R809 cells before and after IFN-α treatment. The settings on record: anti E1/E2 staining, FIG. 16. Format: cell-based, human. The method, then:
Cells were stained with anti E1/E2.
Cells were plated on […] coverslips in 24-well plates at a density of 5×10^4 cells per well. One day after seeding, cells were washed in PBS, fixed in 4% formaldehyde for 30 min and then permeabilized with 0.1% Triton X-100 in PBS for 15 min. Cells were then pretreated with blocking solution (0.5% bovin serum albumin in PBS) for 30 min and incubated for 1 h at room temperature with the primary antibodies diluted in blocking solution according to the manufacturer's instructions. After three washes in PBS, AlexaFluor-conjugated secondary antibodies were added to the cells at a 1:200 dilution for 1 h at room temperature. After washings with PBS, coverslips were washed in distilled water, and mounted in aqueous mounting medium Vectashield with DAPI (4′,6′-diamidino-2-phenylindole).

The test system of a further test is HCV replication. Particulars: reference 101; cited from earlier work.

“Also recorded” adds a separate entry of the source.

As for Interferon alpha [IFN-α], the “HCV RNA levels, absolute” value in test [1] (FIG. 17) is recorded as “decrease”. The “HCV RNA levels relative to ribosomal RNA” value in test [1] (FIG. 18) is “decrease”. Besides, in test [2], the “ER-pattern distribution of E1 and E2” value was “lose the typical ER-pattern distribution of E1 and E2; also recorded: changed the ER-pattern distribution of E1 and E2”. Also, in the test on HCV replication, the “HCV replication in cell culture” value is given as “inhibit HCV replication”.
